# In ChEMBL document CHEMBL1201862, “PubChem BioAssay data set” (2004):
# Calls of active or inactive are those of the source.
# Columns and labels:
# Cytochrome P450 3A4 = Cytochrome P450 3A4 (Homo sapiens, UniProt P08684);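 further: CYP3A4 tested as one member of a cytochrome P450 panel screen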
# [1] = tested on: Streptococcus sp. 'group A'; assay: Streptococcus pyogenes SK(-)GAS viability under kanamycin – luminescence, BacTiterGlo, confirmation, counter-screen for streptokinase expression inhibitor project, dose response (AID 1900); format: functional, organism-based
# Streptococcus = assay: GAS UMAA2166 growth inhibition – luminescence, BacTiterGlo, counter-screen for streptokinase expression inhibitor project, dose response (AID 1915); format: functional, organism-based;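 further: potency for reduction of bacterial viability or growth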
# Cytochrome P450 2C9 = Cytochrome P450 2C9 (Homo sapiens, UniProt P11712)
# Cytochrome P450 1A2 = target: T1, Cytochrome P450 1A2 (Homo sapiens, UniProt P05177);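 further: PubChem cytochrome P450 panel assay, CYP1A2 panel member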
# T1 sequence (P05177 whole entry): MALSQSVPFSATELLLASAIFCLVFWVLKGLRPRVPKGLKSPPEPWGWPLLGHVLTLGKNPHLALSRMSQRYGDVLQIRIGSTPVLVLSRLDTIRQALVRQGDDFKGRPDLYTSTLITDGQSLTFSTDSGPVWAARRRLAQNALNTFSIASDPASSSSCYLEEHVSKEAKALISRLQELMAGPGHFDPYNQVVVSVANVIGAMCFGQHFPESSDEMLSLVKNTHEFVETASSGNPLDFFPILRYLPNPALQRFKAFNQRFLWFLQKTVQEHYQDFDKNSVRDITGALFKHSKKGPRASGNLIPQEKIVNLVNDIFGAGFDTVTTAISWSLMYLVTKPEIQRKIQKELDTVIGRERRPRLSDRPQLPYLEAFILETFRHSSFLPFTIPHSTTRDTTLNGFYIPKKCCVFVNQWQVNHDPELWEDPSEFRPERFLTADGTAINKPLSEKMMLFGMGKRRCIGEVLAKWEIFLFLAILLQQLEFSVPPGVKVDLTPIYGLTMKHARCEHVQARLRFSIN
# [2] = Trypanosoma cruzi growth suppression in host cells – NIH3T3 host cells, beta-gal luminescence, confirmation (AID 2044); format: functional, cell-based;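 further: intracellular parasites grown in NIH/3T3 mouse fibroblasts as host cells; luminescent beta-galactosidase reporter signal from transgenic T. cruzi replicating inside host cells; inhibitors lower the luminescence signal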
# [3] = NIH3T3 cell viability loss – ATP luminescence, mouse fibroblasts, counter-screen, dose response (AID 2010); format: functional, cell-based;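 further: cells exposed to compound for about 90 hours before reading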
# Sequence of Cytochrome P450 3A4 (P08684 whole entry): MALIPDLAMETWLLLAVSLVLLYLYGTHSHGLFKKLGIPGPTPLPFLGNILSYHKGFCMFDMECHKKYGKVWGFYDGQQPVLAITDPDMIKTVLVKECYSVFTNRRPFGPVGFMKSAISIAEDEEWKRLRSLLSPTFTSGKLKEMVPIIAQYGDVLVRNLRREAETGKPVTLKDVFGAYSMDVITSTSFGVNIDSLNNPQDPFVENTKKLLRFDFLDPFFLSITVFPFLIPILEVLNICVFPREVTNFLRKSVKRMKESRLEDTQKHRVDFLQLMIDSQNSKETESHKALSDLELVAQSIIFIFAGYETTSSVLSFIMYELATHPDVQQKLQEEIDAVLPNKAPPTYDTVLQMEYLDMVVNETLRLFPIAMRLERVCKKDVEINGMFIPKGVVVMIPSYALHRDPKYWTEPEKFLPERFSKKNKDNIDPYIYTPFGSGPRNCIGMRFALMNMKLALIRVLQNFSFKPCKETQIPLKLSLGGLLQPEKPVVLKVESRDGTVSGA
# Sequence of Cytochrome P450 2C9 (P11712 whole entry): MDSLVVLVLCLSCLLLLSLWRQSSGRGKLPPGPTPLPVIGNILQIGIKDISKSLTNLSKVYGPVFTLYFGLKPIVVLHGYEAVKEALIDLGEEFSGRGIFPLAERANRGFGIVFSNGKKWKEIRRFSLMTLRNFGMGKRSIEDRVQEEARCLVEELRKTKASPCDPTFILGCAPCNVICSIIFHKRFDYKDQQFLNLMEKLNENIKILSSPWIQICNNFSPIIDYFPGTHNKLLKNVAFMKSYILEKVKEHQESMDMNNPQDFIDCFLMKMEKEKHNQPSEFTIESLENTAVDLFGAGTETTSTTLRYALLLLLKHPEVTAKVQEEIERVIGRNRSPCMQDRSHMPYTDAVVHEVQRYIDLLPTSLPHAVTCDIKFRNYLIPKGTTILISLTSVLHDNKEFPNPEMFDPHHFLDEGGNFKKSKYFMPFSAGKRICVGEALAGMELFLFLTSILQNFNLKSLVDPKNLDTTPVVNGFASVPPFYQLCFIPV
structure (smiles),measurement,setting,value
C[N+](C)(CCCCCC[N+](C)(C)CCCN1C(=O)c2cccc3cccc(c23)C1=O)CCCN1C(=O)c2cccc3cccc(c23)C1=O,AC50,Cytochrome P450 3A4,2.51 µM (inconclusive)
CCCCn1c(=O)c(C(=O)Nc2ccccn2)c(O)c2ccccc21,EC50,[1],3.64 µM (active)
same,EC50,Streptococcus,19.2 µM (active)
COc1ccc(-n2c(=O)c(CCc3ccccc3)nc3cnc(N4CCN(C)CC4)nc32)cc1,AC50,Cytochrome P450 3A4,12.6 µM (inconclusive)
COc1ccc(/C=C/C(=O)NC(=S)NNC(=O)c2cc(OC)c(OC)c(OC)c2)cc1,EC50,[1],1.38 µM (active)
same,EC50,Streptococcus,3.48 µM (active)
CCC(C)Nc1c([N+](=O)[O-])cc(C)cc1[N+](=O)[O-] (stereo not given),AC50,Cytochrome P450 3A4,25.1 µM (inconclusive)
same,AC50,Cytochrome P450 2C9,15.8 µM (inconclusive)
CO/C(O)=C1\C(C)=NC(C)=C([N+](=O)[O-])[C@H]1c1ccccc1C(F)(F)F,AC50,Cytochrome P450 1A2,31.6 µM (inconclusive)
Cc1cccc2c(SCC(=O)NCC3CCCO3)nc(-c3ccc(F)cc3)nc12 (stereo not given),AC50,Cytochrome P450 1A2,0.447 µM (inconclusive)
CCOc1ccc(-c2nnc3n2N=C(c2ccc(OC)cc2)CS3)cc1,AC50,Cytochrome P450 2C9,2.51 µM (inconclusive)
Cc1ccc(CN(C(=O)c2cc3ccccc3oc2=O)C2CCS(=O)(=O)C2)cc1 (stereo not given),AC50,Cytochrome P450 1A2,31.6 µM (inconclusive)
same,AC50,Cytochrome P450 3A4,4.47 µM (inconclusive)
CCOC(=O)CCC(=O)O[C@H]1[C@H](O[C@@H]2[C@@H](C)[C@H](O[C@H]3C[C@@](C)(OC)[C@@H](O)[C@H](C)O3)[C@@H](C)C(=O)O[C@H](CC)[C@@](C)(O)[C@H](O)[C@@H](C)C(=O)[C@H](C)C[C@@]2(C)O)O[C@H](C)C[C@@H]1N(C)C [ERYTHROMYCIN ETHYLSUCCINATE],EC50,[1],< 0.06 µM (active)
same,EC50,Streptococcus,< 0.06 µM (active)
CC(C)NC(=O)N1CC[C@@]2(CCCN(S(=O)(=O)c3ccccc3)C2)C1,AC50,Cytochrome P450 3A4,20 µM (inconclusive)
Cc1nc2ccccn2c1C(=O)C1=C(O)C(=O)N(CCCn2ccnc2)C1c1ccncc1 (stereo not given),AC50,Cytochrome P450 2C9,11.2 µM (inconclusive)
COC(=O)N1CCC2(CCCN(c3ccc(-c4ccccc4)cc3)C2)CC1,AC50,Cytochrome P450 3A4,39.8 µM (inconclusive)
CCOC(=O)C1CCCN(C/C=C/c2ccccc2[N+](=O)[O-])C1 (stereo not given),AC50,Cytochrome P450 3A4,25.1 µM (inconclusive)
same,AC50,Cytochrome P450 2C9,15.8 µM (inconclusive)
Cn1c(=O)c2c(nc(N3CCN(c4ccccn4)CC3)n2Cc2ccccc2Cl)n(C)c1=O,AC50,Cytochrome P450 3A4,1.26 µM (inconclusive)
O=c1c(-c2cccs2)nc2cnc(N3CCOCC3)nc2n1-c1ccccc1,AC50,Cytochrome P450 3A4,7.94 µM (inconclusive)
same,AC50,Cytochrome P450 2C9,10 µM (inconclusive)
CCOc1ccc(C(CC(=O)O)NC(=O)COc2ccccc2)cc1 (stereo not given),AC50,Cytochrome P450 2C9,39.8 µM (inconclusive)
CCCCCCCCCCCCCCCCCCNC(=O)OC[C@@H](COP(=O)([O-])OCC[n+]1ccsc1)OC,AC50,Cytochrome P450 2C9,39.8 µM (inconclusive)
CCNc1ncc2nc(-c3ccccc3)c(=O)n(CCC#N)c2n1,AC50,Cytochrome P450 3A4,25.1 µM (inconclusive)
CCOc1ccc2nc(N3CCCCCC3)sc2c1,AC50,Cytochrome P450 3A4,35.5 µM (inconclusive)
same,AC50,Cytochrome P450 2C9,12.6 µM (inconclusive)
O=C(c1cc(-c2cccs2)on1)N1CCN(c2ccc(F)cc2)CC1,AC50,Cytochrome P450 3A4,20 µM (inconclusive)
O=C(CC1C(=O)NCCN1C(=S)Nc1ccccc1)Nc1ccc2c(c1)OCCO2 (stereo not given),AC50,Cytochrome P450 3A4,25.1 µM (inconclusive)
same,AC50,Cytochrome P450 2C9,35.5 µM (inconclusive)
O=C(c1csnn1)N1CCC2(CC1)CN(Cc1ccncc1)C2,AC50,Cytochrome P450 3A4,15.8 µM (inconclusive)
Nc1c(S(=O)(=O)O)cc(Nc2cccc(S(N)(=O)=O)c2)c2c1C(=O)c1ccccc1C2=O,AC50,Cytochrome P450 3A4,7.94 µM (inconclusive)
COc1ccccc1CNc1ncncc1-c1ccccc1C,AC50,Cytochrome P450 3A4,0.398 µM (inconclusive)
CC(C)C[C@H]1C(=O)N2CCC[C@@H]2[C@@]2(O)O[C@](NC(=O)[C@@H]3C=C4c5cccc6[nH]cc(c56)C[C@@H]4N(C)C3)(C(C)C)C(=O)N12,AC50,Cytochrome P450 1A2,12.6 µM (inconclusive)
C[C@H]1C2=C3C(CC[C@H]4C(OCc5ccc(F)cc5C(F)(F)F)OC[C@](C)([C@@H]34)N(C(=O)OC(C)(C)C)C2)C2COC(=O)OCC21 (stereo not given in full),AC50,Cytochrome P450 1A2,6.31 µM (inconclusive)
COCCNc1nc(-c2ccoc2)nc2ccccc12,AC50,Cytochrome P450 3A4,12.6 µM (inconclusive)
O=C(NC1CCCC1)c1cnn2c(C(F)(F)F)cc(-c3ccco3)nc12,AC50,Cytochrome P450 2C9,22.4 µM (inconclusive)
CN1CCN2c3ncccc3Cc3ccccc3C2C1 (stereo not given) [MIRTAZAPINE],AC50,Cytochrome P450 1A2,20 µM (inconclusive)
Cc1cnc2cc(Cl)ccc2c1SCC(=O)O,AC50,Cytochrome P450 3A4,3.98 µM (inconclusive)
C/C(=N\OC(=O)NC(C)C)c1sc(-c2ccccc2)nc1C,AC50,Cytochrome P450 3A4,25.1 µM (inconclusive)
same,AC50,Cytochrome P450 2C9,11.2 µM (inconclusive)
Cc1cc(=O)n2c3ccccc3n(CC(O)CN3CCCCC3)c2c1C#N (stereo not given),AC50,Cytochrome P450 1A2,15.8 µM (inconclusive)
CC(=O)N1CCc2cc(Br)cc(S(=O)(=O)N3CCN(C(=O)c4ccco4)CC3)c21,AC50,Cytochrome P450 3A4,15.8 µM (inconclusive)
CCOc1ccc(Cc2nccc3cc(OCC)c(OCC)cc23)cc1OCC [ETHAVERINE],AC50,Cytochrome P450 1A2,10 µM (inconclusive)
COC(=O)[C@@]1(Cc2ccc(F)cc2)[C@H]2c3cc(C(=O)N4CCCC4)n(CCc4ccc(OC)c(Br)c4)c3C[C@H]2CN1C(=O)c1ccccc1,AC50,Cytochrome P450 1A2,15.8 µM (inconclusive)
O=C(NCC1CCCO1)C(c1cccs1)N(Cc1ccccc1Cl)C(=O)c1ccc(-c2ccccc2)[nH]1 (stereo not given),EC50,[2],2.96 µM (active)
same,EC50,[3],> 30 µM (not active)
Cc1cc2ccccn2c1C(=O)c1nc(N2CCOCC2)ncc1Cl,AC50,Cytochrome P450 3A4,28.2 µM (inconclusive)
same,AC50,Cytochrome P450 2C9,39.8 µM (inconclusive)
COc1ccc(C(=O)C2CCCN(Cc3cccc4c3OCO4)C2)cc1OC (stereo not given),EC50,[2],0.576 µM (active)
same,EC50,[3],12.4 µM (active)
Cc1ccc(OCCNC(=O)c2cncc(Br)c2)cc1C,AC50,Cytochrome P450 2C9,25.1 µM (inconclusive)
COC(=O)c1ccc(C2Nc3cccc4cccc(c34)N2)cc1,EC50,[2],6.1 µM (active)
same,EC50,[3],> 60 µM (not active)
Cc1ccc(SCCN2CCN(C)CC2)cc1,EC50,[2],0.852 µM (active)
same,EC50,[3],10.3 µM (active)
CC[C@H](Cc1c(I)cc(I)c(N)c1I)C(=O)O,AC50,Cytochrome P450 2C9,6.31 µM (inconclusive)
Cc1nc2cnc(OCc3ccccc3)nc2n(CCC#N)c1=O,AC50,Cytochrome P450 3A4,3.98 µM (inconclusive)
CSc1cc2c(cc1C(F)(F)F)N(C(=O)Nc1cccnc1)CC2,AC50,Cytochrome P450 3A4,3.98 µM (inconclusive)
COc1cc(OC)c(C2C(C(=O)Nc3ccc(C)cc3C)=C(C)Nc3ncnn32)cc1OC (stereo not given),AC50,Cytochrome P450 2C9,15.8 µM (inconclusive)
Cc1cnc(CNc2ccnc(-c3ccc(N(C)C)cc3)n2)cn1,AC50,Cytochrome P450 3A4,10 µM (inconclusive)
CCNc1nc(Sc2ccc(C)cc2)cc(C(F)(F)F)n1,AC50,Cytochrome P450 3A4,22.4 µM (inconclusive)
C=CCOc1c(Br)cc(CNCCCN2CCOCC2)cc1OC,EC50,[2],0.521 µM (active)
same,EC50,[3],22.9 µM (active)
CCC(c1nnnn1CS(=O)(=O)c1ccc(C)cc1)N1CCN(c2nc3ccccc3s2)CC1 (stereo not given),EC50,[2],0.861 µM (active)
same,EC50,[3],> 30 µM (not active)
Fc1ccc(C2=Nn3c(Cc4ccccc4F)nnc3SC2)cc1,AC50,Cytochrome P450 3A4,12.6 µM (inconclusive)
same,AC50,Cytochrome P450 2C9,2 µM (inconclusive)
O=C(Oc1ccccc1)N1CCC[C@@]2(CCN(C(c3ccccc3)c3ccccc3)C2)C1,AC50,Cytochrome P450 1A2,25.1 µM (inconclusive)
O=C(N/N=C\c1cccc(F)c1)c1ccc(Cn2cc(Br)c([N+](=O)[O-])n2)o1,EC50,[2],0.889 µM (active)
same,EC50,[3],> 60 µM (not active)
O=S(=O)(c1ccccc1)N1CCC2(CCCN(c3ncccn3)C2)CC1,AC50,Cytochrome P450 1A2,15.8 µM (inconclusive)
CCOC(=O)N(c1ccccc1)P1(=S)OCCO1,AC50,Cytochrome P450 2C9,0.0355 µM (inconclusive)
N#CC(C(=O)OC1CCCCC1)c1nc2ccccc2nc1N1CCCCC1 (stereo not given),EC50,[2],1.01 µM (active)
same,EC50,[3],8.74 µM (active)
Cc1nnc2ccccc2c1O,AC50,Cytochrome P450 1A2,0.398 µM (inconclusive)
O=c1c(-c2ccc(F)c(F)c2)nc2cncnc2n1Cc1ccccc1Cl,AC50,Cytochrome P450 3A4,12.6 µM (inconclusive)
O=C1CC(SC(=Nc2ccccc2)Nc2ccccc2)C(=O)N1c1ccc(Cl)c(Cl)c1 (stereo not given),EC50,[2],2.06 µM (active)
same,EC50,[3],> 60 µM (inconclusive)
